Experimental data as given in PubChem BioAssay AID2060625 (Molecular Pharmacology Branch, DTP, NCI, 2025).
Where “and” joins values, the source holds several entries; their conditions need not be identical. Equal values may be shown once.

Test system: 186277-243-T-J2-PDC spheroids with HUVEC/MSC, viability
Test: Anticancer human tumor 186277-243-T-J2-PDC patient-derived colon adenocarcinoma cell line growth inhibition [CLK]
Conditions: for viability, T/C: stronger effect = lower value
Summary of the method: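 Multi-cell-type spheroids combined patient-derived tumor cells with HUVEC endothelial cells and human mesenchymal stem cells. Paired agents were dosed in half-log steps down from about clinical Cmax, or from 10 microM where Cmax was unknown.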

[1] = curve of first compound, second compound 0.0316 µM
[2] = curve of first compound, second compound 0.1 µM
[3] = curve of first compound, second compound 0.316 µM
[4] = curve of first compound, second compound 1 µM
[5] = curve of first compound, second compound 3.16 µM
[6] = curve of first compound, second compound 10 µM
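Further: compound exposure lasted seven days before readout.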
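Wherever viability, T/C is given: 100% = DMSO vehicle control wells.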

SMILES: CCCS(=O)(=O)Nc1ccc(F)c(C(=O)c2c[nH]c3ncc(-c4ccc(Cl)cc4)cc23)c1F + CNC(=O)c1ccc(Nc2nc(OC3CCCC3)c3c(-c4ccc5nc(C)oc5c4)c[nH]c3n2)c(OC)c1
- IC50 [1]: > 10000 nM
- IC50 [2]: 6980 nM
- IC50 [3]: 3620 nM
- IC50 [4]: < 31.6 nM
- IC50 [5]: < 31.6 nM
- IC50 [6]: < 31.6 nM
- viability, T/C (second compound 0.0316 µM, first compound 0.0316 µM): 105%
- viability, T/C (second compound 0.0316 µM, first compound 0.1 µM): 101%
- viability, T/C (second compound 0.0316 µM, first compound 0.316 µM): 98.5%
- viability, T/C (second compound 0.0316 µM, first compound 1 µM): 110%
- viability, T/C (second compound 0.0316 µM, first compound 3.16 µM): 103%
- viability, T/C (second compound 0.0316 µM, first compound 10 µM): 78.8%
- viability, T/C (second compound 0.1 µM, first compound 0.0316 µM): 77%
- viability, T/C (second compound 0.1 µM, first compound 0.1 µM): 77.5%
- viability, T/C (second compound 0.1 µM, first compound 0.316 µM): 73.7%
- viability, T/C (second compound 0.1 µM, first compound 1 µM): 92.5%
- viability, T/C (second compound 0.1 µM, first compound 3.16 µM): 79.2%
- viability, T/C (second compound 0.1 µM, first compound 10 µM): 36.7%
- viability, T/C (second compound 0.316 µM, first compound 0.0316 µM): 50.8%
- viability, T/C (second compound 0.316 µM, first compound 0.1 µM): 53%
- viability, T/C (second compound 0.316 µM, first compound 0.316 µM): 58.7%
- viability, T/C (second compound 0.316 µM, first compound 1 µM): 63.6%
- viability, T/C (second compound 0.316 µM, first compound 3.16 µM): 51.7%
- viability, T/C (second compound 0.316 µM, first compound 10 µM): 25.9%
- viability, T/C (second compound 1 µM, first compound 0.0316 µM): 38.9%
- viability, T/C (second compound 1 µM, first compound 0.1 µM): 38.2%
- viability, T/C (second compound 1 µM, first compound 0.316 µM): 39.6%
- viability, T/C (second compound 1 µM, first compound 1 µM): 44.6%
- viability, T/C (second compound 1 µM, first compound 3.16 µM): 36.4%
- viability, T/C (second compound 1 µM, first compound 10 µM): 27.3%
- viability, T/C (second compound 3.16 µM, first compound 0.0316 µM): 33.2%
- viability, T/C (second compound 3.16 µM, first compound 0.1 µM): 37.9%
- viability, T/C (second compound 3.16 µM, first compound 0.316 µM): 37.9%
- viability, T/C (second compound 3.16 µM, first compound 1 µM): 37.1%
- viability, T/C (second compound 3.16 µM, first compound 3.16 µM): 33.3%
- viability, T/C (second compound 3.16 µM, first compound 10 µM): 21.6%
- viability, T/C (second compound 10 µM, first compound 0.0316 µM): 37.4%
- viability, T/C (second compound 10 µM, first compound 0.1 µM): 39.2%
- viability, T/C (second compound 10 µM, first compound 0.316 µM): 36.6%
- viability, T/C (second compound 10 µM, first compound 1 µM): 34.8%
- viability, T/C (second compound 10 µM, first compound 3.16 µM): 31.6%
- viability, T/C (second compound 10 µM, first compound 10 µM): 24.5%

SMILES: C=CC(=O)Nc1cc(Nc2nccc(-c3cn(C)c4ccccc34)n2)c(OC)cc1N(C)CCN(C)C + CN1CCN(c2cc(C(=O)Nc3cc4cc(-c5cnn(C)c5)ccc4cn3)ccn2)CC1
- IC50 [1]: > 300 nM
- IC50 [2]: > 300 nM
- IC50 [3]: < 0.949 nM
- IC50 [4]: < 0.949 nM
- IC50 [5]: < 0.949 nM
- IC50 [6]: < 0.949 nM
- viability, T/C (second compound 0.0316 µM, first compound 0.000949 µM): 92.1%
- viability, T/C (second compound 0.0316 µM, first compound 0.003 µM): 92.6%
- viability, T/C (second compound 0.0316 µM, first compound 0.00949 µM): 90.9%
- viability, T/C (second compound 0.0316 µM, first compound 0.03 µM): 78.2%
- viability, T/C (second compound 0.0316 µM, first compound 0.0949 µM): 83.8%
- viability, T/C (second compound 0.0316 µM, first compound 0.3 µM): 82.2%
- viability, T/C (second compound 0.1 µM, first compound 0.000949 µM): 87%
- viability, T/C (second compound 0.1 µM, first compound 0.003 µM): 75.6%
- viability, T/C (second compound 0.1 µM, first compound 0.00949 µM): 86.8%
- viability, T/C (second compound 0.1 µM, first compound 0.03 µM): 92.3%
- viability, T/C (second compound 0.1 µM, first compound 0.0949 µM): 70.9%
- viability, T/C (second compound 0.1 µM, first compound 0.3 µM): 64%
- viability, T/C (second compound 0.316 µM, first compound 0.000949 µM): 25.9%
- viability, T/C (second compound 0.316 µM, first compound 0.003 µM): 26.1%
- viability, T/C (second compound 0.316 µM, first compound 0.00949 µM): 25.2%
- viability, T/C (second compound 0.316 µM, first compound 0.03 µM): 21.2%
- viability, T/C (second compound 0.316 µM, first compound 0.0949 µM): 20.8%
- viability, T/C (second compound 0.316 µM, first compound 0.3 µM): 14%
- viability, T/C (second compound 1 µM, first compound 0.000949 µM): 0.45%
- viability, T/C (second compound 1 µM, first compound 0.003 µM): 0.44%
- viability, T/C (second compound 1 µM, first compound 0.00949 µM): 1.59%
- viability, T/C (second compound 1 µM, first compound 0.03 µM): 0.36%
- viability, T/C (second compound 1 µM, first compound 0.0949 µM): 0.85%
- viability, T/C (second compound 1 µM, first compound 0.3 µM): 0.32%
- viability, T/C (second compound 3.16 µM, first compound 0.000949 µM): 1.64%
- viability, T/C (second compound 3.16 µM, first compound 0.003 µM): 1.27%
- viability, T/C (second compound 3.16 µM, first compound 0.00949 µM): 2.11%
- viability, T/C (second compound 3.16 µM, first compound 0.03 µM): 0.98%
- viability, T/C (second compound 3.16 µM, first compound 0.0949 µM): 0.87%
- viability, T/C (second compound 3.16 µM, first compound 0.3 µM): 0.74%
- viability, T/C (second compound 10 µM, first compound 0.000949 µM): 0.65%
- viability, T/C (second compound 10 µM, first compound 0.003 µM): 0.71%
- viability, T/C (second compound 10 µM, first compound 0.00949 µM): 0.97%
- viability, T/C (second compound 10 µM, first compound 0.03 µM): 0.86%
- viability, T/C (second compound 10 µM, first compound 0.0949 µM): 0.61%
- viability, T/C (second compound 10 µM, first compound 0.3 µM): 1.03%

SMILES: COc1c(OCCCN2CCOCC2)ccc2c3n(c(=NC(=O)c4cnc(N)nc4)nc12)CCN3
- viability, T/C (compound 0.00316 µM): 84.7% and 90.2%
- viability, T/C (compound 0.01 µM): 91.5% and 103%
- viability, T/C (compound 0.0316 µM): 63.3% and 52.9%
- viability, T/C (compound 0.1 µM): 40% and 23.9%
- viability, T/C (compound 0.316 µM): 23.7% and 13.1%
- viability, T/C (compound 1 µM): 15.5% and 8.53%
- IC50 (curve of compound): 63.6 nM and 34.6 nM
